Measurements as given in BigSolDB 2.1.

Q: What does the source list for O=P1(C(Nc2ccccc2)c2ccccc2)OCC2(CO1)COP(=O)(C(Nc1ccccc1)c1ccccc1)OC2 (centres undefined)?
A: solubility (mole fraction) (in 1,2-dichloroethane, 283.35 K): 0.000119; solubility (mole fraction) (in 1,2-dichloroethane, 288.25 K): 0.000127; solubility (mole fraction) (in 1,2-dichloroethane, 293.3 K): 0.00014; solubility (mole fraction) (in 1,2-dichloroethane, 297.95 K): 0.000153; solubility (mole fraction) (in 1,2-dichloroethane, 303.45 K): 0.000163; solubility (mole fraction) (in 1,2-dichloroethane, 308.35 K): 0.000176; solubility (mole fraction) (in 1,2-dichloroethane, 313.45 K): 0.00019; solubility (mole fraction) (in 1,2-dichloroethane, 318.25 K): 0.000208; solubility (mole fraction) (in 1,2-dichloroethane, 323.45 K): 0.000219; solubility (mole fraction) (in 1,2-dichloroethane, 327.95 K): 0.000231; solubility (mole fraction) (in 1,2-dichloroethane, 333.35 K): 0.000249; solubility (mole fraction) (in 1,2-dichloroethane, 338.15 K): 0.000271; solubility (mole fraction) (in 1,4-dioxane, 283.15 K): 7.3e-05; solubility (mole fraction) (in 1,4-dioxane, 288.35 K): 8.4e-05; solubility (mole fraction) (in 1,4-dioxane, 293.25 K): 0.0001; solubility (mole fraction) (in 1,4-dioxane, 298.35 K): 0.000121; solubility (mole fraction) (in 1,4-dioxane, 303.15 K): 0.000146; solubility (mole fraction) (in 1,4-dioxane, 308.25 K): 0.000176; solubility (mole fraction) (in 1,4-dioxane, 313.45 K): 0.000202; solubility (mole fraction) (in 1,4-dioxane, 318.65 K): 0.000248; solubility (mole fraction) (in 1,4-dioxane, 323.55 K): 0.000286; solubility (mole fraction) (in 1,4-dioxane, 328.25 K): 0.000332; solubility (mole fraction) (in 1,4-dioxane, 333.2 K): 0.000417; solubility (mole fraction) (in 1,4-dioxane, 338.3 K): 0.000479; solubility (mole fraction) (in THF, 288.45 K): 0.00381; solubility (mole fraction) (in THF, 293.25 K): 0.00428; solubility (mole fraction) (in THF, 298.15 K): 0.00481; solubility (mole fraction) (in THF, 303.15 K): 0.0053; solubility (mole fraction) (in THF, 308.65 K): 0.00588; solubility (mole fraction) (in THF, 313.45 K): 0.00645; solubility (mole fraction) (in THF, 318.45 K): 0.00711; solubility (mole fraction) (in THF, 323.55 K): 0.00788; solubility (mole fraction) (in THF, 328.35 K): 0.00862; solubility (mole fraction) (in THF, 333.25 K): 0.01; solubility (mole fraction) (in THF, 338.15 K): 0.0108; solubility (mole fraction) (in acetic acid, 298.25 K): 0.000115; solubility (mole fraction) (in acetic acid, 303.65 K): 0.000156; solubility (mole fraction) (in acetic acid, 308.15 K): 0.000194; solubility (mole fraction) (in acetic acid, 313.25 K): 0.000233; solubility (mole fraction) (in acetic acid, 318.25 K): 0.000288; solubility (mole fraction) (in acetic acid, 323.15 K): 0.000326; solubility (mole fraction) (in acetic acid, 328.25 K): 0.000348; solubility (mole fraction) (in acetic acid, 333.45 K): 0.000406; solubility (mole fraction) (in acetic acid, 338.15 K): 0.000444; solubility (mole fraction) (in acetone, 283.35 K): 9.1e-05; solubility (mole fraction) (in acetone, 288.25 K): 0.000101; solubility (mole fraction) (in acetone, 293.25 K): 0.00011; solubility (mole fraction) (in acetone, 298.3 K): 0.000123; solubility (mole fraction) (in acetone, 303.35 K): 0.000136; solubility (mole fraction) (in acetone, 308.45 K): 0.000151; solubility (mole fraction) (in acetone, 313.25 K): 0.000164; solubility (mole fraction) (in acetone, 318.55 K): 0.000183; solubility (mole fraction) (in acetone, 323.25 K): 0.000205; solubility (mole fraction) (in acetone, 328.35 K): 0.000221; solubility (mole fraction) (in acetonitrile, 288.3 K): 3.6e-05; solubility (mole fraction) (in acetonitrile, 293.2 K): 4.5e-05; solubility (mole fraction) (in acetonitrile, 298.25 K): 5.5e-05; solubility (mole fraction) (in acetonitrile, 303.15 K): 6.1e-05; solubility (mole fraction) (in acetonitrile, 308.25 K): 7.6e-05; solubility (mole fraction) (in acetonitrile, 313.2 K): 8.7e-05; solubility (mole fraction) (in acetonitrile, 317.95 K): 9.8e-05; solubility (mole fraction) (in acetonitrile, 323.55 K): 0.000121; solubility (mole fraction) (in acetonitrile, 328.45 K): 0.000146; solubility (mole fraction) (in acetonitrile, 333.15 K): 0.000169; solubility (mole fraction) (in acetonitrile, 338.25 K): 0.000194; solubility (mole fraction) (in benzene, 283.25 K): 3.1e-05; solubility (mole fraction) (in benzene, 288.35 K): 4.3e-05; solubility (mole fraction) (in benzene, 293.15 K): 6.4e-05; solubility (mole fraction) (in benzene, 298.45 K): 8.2e-05; solubility (mole fraction) (in benzene, 303.35 K): 9.8e-05; solubility (mole fraction) (in benzene, 308.45 K): 0.000123; solubility (mole fraction) (in benzene, 313.25 K): 0.000145; solubility (mole fraction) (in benzene, 318.3 K): 0.000178; solubility (mole fraction) (in benzene, 323.35 K): 0.000199; solubility (mole fraction) (in benzene, 328.25 K): 0.000218; solubility (mole fraction) (in benzene, 333.15 K): 0.000239; solubility (mole fraction) (in benzene, 338.35 K): 0.000266; solubility (mole fraction) (in dichloromethane, 283.25 K): 0.000164; solubility (mole fraction) (in dichloromethane, 288.3 K): 0.000202; solubility (mole fraction) (in dichloromethane, 293.35 K): 0.000268; solubility (mole fraction) (in dichloromethane, 298.25 K): 0.000308; solubility (mole fraction) (in dichloromethane, 303.35 K): 0.000342; solubility (mole fraction) (in dichloromethane, 308.15 K): 0.000388; solubility (mole fraction) (in dichloromethane, 313.25 K): 0.000423; solubility (mole fraction) (in diethyl ether, 283.35 K): 5.5e-05; solubility (mole fraction) (in diethyl ether, 288.15 K): 8.6e-05; solubility (mole fraction) (in diethyl ether, 292.95 K): 0.000126; solubility (mole fraction) (in diethyl ether, 298.65 K): 0.000213; solubility (mole fraction) (in diethyl ether, 303.25 K): 0.000299; solubility (mole fraction) (in ethanol, 288.25 K): 4e-05; solubility (mole fraction) (in ethanol, 293.15 K): 5e-05; solubility (mole fraction) (in ethanol, 303.25 K): 7.4e-05; solubility (mole fraction) (in ethanol, 308.55 K): 9e-05; solubility (mole fraction) (in ethanol, 313.45 K): 0.000113; solubility (mole fraction) (in ethanol, 317.85 K): 0.000141; solubility (mole fraction) (in ethanol, 323.25 K): 0.00017; solubility (mole fraction) (in ethanol, 328.25 K): 0.0002; solubility (mole fraction) (in ethanol, 333.25 K): 0.000243; solubility (mole fraction) (in ethanol, 338.25 K): 0.000285; solubility (mole fraction) (in ethanol, 343.15 K): 0.00036; solubility (mole fraction) (in isopropanol, 283.45 K): 0.000107; solubility (mole fraction) (in isopropanol, 287.95 K): 0.000131; solubility (mole fraction) (in isopropanol, 293.45 K): 0.000156; solubility (mole fraction) (in isopropanol, 298.15 K): 0.000176; solubility (mole fraction) (in isopropanol, 303.25 K): 0.000209; solubility (mole fraction) (in isopropanol, 308.15 K): 0.000234; solubility (mole fraction) (in isopropanol, 313.25 K): 0.000256; solubility (mole fraction) (in isopropanol, 318.15 K): 0.000289; solubility (mole fraction) (in isopropanol, 323.65 K): 0.000312; solubility (mole fraction) (in isopropanol, 328.55 K): 0.000348; solubility (mole fraction) (in isopropanol, 333.3 K): 0.000393; solubility (mole fraction) (in isopropanol, 338.5 K): 0.000414; solubility (mole fraction) (in toluene, 283.15 K): 0.000765; solubility (mole fraction) (in toluene, 288.25 K): 0.00117; solubility (mole fraction) (in toluene, 293.25 K): 0.0015; solubility (mole fraction) (in toluene, 298.45 K): 0.00199; solubility (mole fraction) (in toluene, 303.15 K): 0.00238; solubility (mole fraction) (in toluene, 308.15 K): 0.00287; solubility (mole fraction) (in toluene, 313.45 K): 0.00344; solubility (mole fraction) (in toluene, 318.65 K): 0.00388; solubility (mole fraction) (in toluene, 323.25 K): 0.00449; solubility (mole fraction) (in toluene, 328.25 K): 0.00494; solubility (mole fraction) (in toluene, 333.25 K): 0.00542; solubility (mole fraction) (in toluene, 338.25 K): 0.00614
